This is an account of results in patent US9090599B2, “Heteroarylmethyl amides” (Hoffman-La Roche Inc., priority 2010, dated 2015).

Where two headings read alike, the source gives them in different places.

One assay addresses T1, human CB1 receptor (Homo sapiens, UniProt P21554).
T1 construct: expressed in transfected cells; host or cells: human embryonic kidney (HEK) cells, Semliki Forest Virus system, membrane preparations
Nature of the assay: CB1 receptor affinity, [3H]-CP-55,940 displacement, HEK cell membranes. Type of assay: binding. Particulars: read-out: CB1 receptor affinity [% inhibition @ 10 μM]. As for the experimental part: (§1) The affinity of the compounds of the invention for cannabinoid receptors was determined using membrane preparations of human embryonic kidney (HEK) cells in which the human CB1 receptor is transiently transfected using a Semliki Forest Virus system in conjunction with [3H]-CP-55,940 as radioligand. After incubation of freshly prepared cell membrane preparation with the [^3H]-ligand, with or without addition of compounds of the invention, separation of bound and free ligand was performed by filtration over glass fiber filters. Radioactivity on the filter was measured by scintillation counting.
(§2) The ability of the compounds to displace the radioligand [^3H]-CP-55,940 was measured at a concentration of 10 μM and values provided as [% inhibition @ 10 μM] both for the CB 1 and CB2 receptor assay, The lower % inhibition is, the lower the likelihood of side effects based on CB1 or CB2 receptor inhibition is.

For the next assay, the target named is T2, human CB2 receptor (Homo sapiens, UniProt P34972).
T2 construct: expressed in transfected cells; host or cells: human embryonic kidney (HEK) cells, Semliki Forest Virus system, membrane preparations
In words: CB2 receptor affinity, [3H]-CP-55,940 displacement, HEK cell membranes. It is filed as binding. Particulars: 10 μM compound, radioligand [3H]-CP-55,940. As for the experimental part:
as §1, with “cannabinoid CB2” for “cannabinoid”, “CB2” for “CB1”, “[^3H]-CP-55,940” for “[3H]-CP-55,940”
as §2

Where [1] appears, read: 10 μM compound, radioligand [3H]-CP-55,940.

T2 sequence (P34972 whole entry): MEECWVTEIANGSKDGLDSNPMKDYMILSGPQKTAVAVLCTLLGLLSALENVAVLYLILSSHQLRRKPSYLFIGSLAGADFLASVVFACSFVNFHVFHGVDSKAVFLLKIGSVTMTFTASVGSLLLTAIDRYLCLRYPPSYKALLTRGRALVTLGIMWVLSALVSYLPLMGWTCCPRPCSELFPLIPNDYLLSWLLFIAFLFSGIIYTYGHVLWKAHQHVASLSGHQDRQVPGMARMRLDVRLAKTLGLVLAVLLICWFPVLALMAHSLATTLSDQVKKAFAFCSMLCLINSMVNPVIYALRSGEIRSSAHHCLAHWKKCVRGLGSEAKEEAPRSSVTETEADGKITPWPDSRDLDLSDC
T1 sequence (P21554 whole entry): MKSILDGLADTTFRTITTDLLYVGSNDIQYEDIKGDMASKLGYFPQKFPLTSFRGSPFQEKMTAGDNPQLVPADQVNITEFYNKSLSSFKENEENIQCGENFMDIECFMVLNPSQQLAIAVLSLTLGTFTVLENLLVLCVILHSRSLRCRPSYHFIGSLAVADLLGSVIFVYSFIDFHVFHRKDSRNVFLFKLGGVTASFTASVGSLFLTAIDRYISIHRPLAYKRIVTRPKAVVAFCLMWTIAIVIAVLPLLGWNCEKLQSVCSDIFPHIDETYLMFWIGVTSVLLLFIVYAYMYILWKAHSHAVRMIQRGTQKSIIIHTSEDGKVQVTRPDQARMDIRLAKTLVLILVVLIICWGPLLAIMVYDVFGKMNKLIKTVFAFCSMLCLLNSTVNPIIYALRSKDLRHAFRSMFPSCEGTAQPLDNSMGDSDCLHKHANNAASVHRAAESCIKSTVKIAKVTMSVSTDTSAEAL

Turning to `COc1cc(CNC(=O)c2cnc(OCC(F)(F)F)c(-c3ccc(Cl)c(F)c3)c2)on1` [Example 86, 5-(4-chloro-3-fluorophenyl)-N-((3-methoxyisoxazol-5-yl)methyl)-6-(2,2,2-trifluoroethoxy)nicotinamide], the inhibition – broadly, the change of the read-out against control, counted positive when it falls – at 10 µM amounted to 37% on human CB1 receptor (setting [1]) and 9% on human CB2 receptor.

For `O=C(NCc1nc(C(F)(F)F)no1)c1cnc(OCC(F)(F)F)c(-c2ccc(Cl)cc2F)c1` [Example 84, 5-(4-chloro-2-fluorophenyl)-6-(2,2,2-trifluoroethoxy)-N-((3-(trifluoromethyl)-1,2,4-oxadiazol-5-yl)methyl)nicotinamide], the inhibition at 10 µM at human CB1 receptor (setting [1]) came to 49%; on human CB2 receptor it was 21%.

Turning to `CC(C)c1nc(CNC(=O)c2cnc(OCC3CC3)c(-c3ccc(Cl)cc3)c2)no1` [Example 51], the inhibition at 10 µM was determined as 47% at human CB1 receptor (setting [1]) and 2% on human CB2 receptor.

As to `CC(C)c1cc(CNC(=O)c2ccc(OCC(F)(F)F)c(-c3ccc(Cl)cc3)n2)no1` [Example 53, 6-(4-chloro-phenyl)-5-(2,2,2-trifluoro-ethoxy)-pyridine-2-carboxylic acid (5-isopropyl-isoxazol-3-ylmethyl)-amide], the inhibition at 10 µM at human CB1 receptor (setting [1]) amounted to 43%; at human CB2 receptor, 23%.

Turning to `O=C(NCc1nc(C(F)(F)F)no1)c1cnc(OC2CCC2)c(-c2ccc(Cl)cc2)c1` [Example 92, 5-(4-chlorophenyl)-6-cyclobutoxy-N-((3-(trifluoromethyl)-1,2,4-oxadiazol-5-yl)methyl)nicotinamide], the results for the inhibition at 10 µM on human CB1 receptor (setting [1]) and on human CB2 receptor were 43% and 9%, respectively.

For `C[C@H](Oc1ncc(C(=O)NCc2nc(C(F)(F)F)no2)nc1-c1ccc(Cl)cc1)C(F)(F)F` [Example 36, (S)-6-(4-chlorophenyl)-N-((3-(trifluoromethyl)-1,2,4-oxadiazol-5-yl)methyl)-5-(1,1,1-trifluoropropan-2-yloxy)pyrazine-2-carboxamide], the figures for the inhibition at 10 µM at human CB1 receptor (setting [1]) and on human CB2 receptor were 36% and 14%, respectively.

Take `O=C(NCc1nc(C(F)(F)F)no1)c1cnc(OCC2CC2)c(-c2ccc(F)c(F)c2)c1` [Example 95, 6-(cyclopropylmethoxy)-5-(3,4-difluorophenyl)-N-((3-(trifluoromethyl)-1,2,4-oxadiazol-5-yl)methyl)nicotinamide]: the inhibition at 10 µM came to 39% at human CB1 receptor (setting [1]) and 21% on human CB2 receptor.

As for `O=C(NCc1cc(C2CC2)on1)c1cnc(OCC2CC2)c(-c2ccc(Cl)cc2)c1` [Example 30, 5-(4-chloro-phenyl)-N-(5-cyclopropyl-isoxazol-3-ylmethyl)-6-cyclopropyl-methoxy-nicotinamide], the inhibition at 10 µM on human CB1 receptor (setting [1]) came to 48%; at human CB2 receptor, 38%.

`C[C@H](Oc1cnc(C(=O)NCc2cc(C(F)(F)F)no2)nc1-c1ccc(Cl)cc1)C(F)(F)F` [Example 68, (S)-4-(4-chlorophenyl)-N-((3-(trifluoromethyl)isoxazol-5-yl)methyl)-5-(1,1,1-trifluoropropan-2-yloxy)pyrimidine-2-carboxamide]: the values for the inhibition at 10 µM at human CB1 receptor (setting [1]) and on human CB2 receptor were 45% and 3%, respectively.

As to `O=C(NCc1ccn(CC2CC2)n1)c1cnc(OCC(F)(F)F)c(-c2ccc(Cl)cc2)c1` [Example 88, 5-(4-chlorophenyl)-N-((1-(cyclopropylmethyl)-1H-pyrazol-3-yl)methyl)-6-(2,2,2-trifluoroethoxy)nicotinamide], the inhibition at 10 µM on human CB1 receptor (setting [1]) stood at 48%; at human CB2 receptor it was 11%.

Regarding `O=C(NCc1nc(C(F)(F)F)no1)c1cc(-c2ccc(Cl)cc2)c(OCC2CC2)nn1` [Example 20, 5-(4-chloro-phenyl)-6-cyclopropylmethoxy-pyridazine-3-carboxylic acid (3-trifluoromethyl-[1,2,4]oxadiazol-5-ylmethyl)-amide], the inhibition at 10 µM on human CB1 receptor (setting [1]) was determined as 33%; on human CB2 receptor, 34%.

As for `COc1cc(CNC(=O)c2cc(-c3ccc(C)c(C)c3)c(OCC(F)(F)F)cn2)on1` [Example 75, 4-(3,4-dimethylphenyl)-N-((3-methoxyisoxazol-5-yl)methyl)-5-(2,2,2-trifluoroethoxy)picolinamide], the inhibition at 10 µM at human CB1 receptor (setting [1]) came to 19%; on human CB2 receptor it was 34%.

Turning to `Cc1ccc(-c2cc(C(=O)NCc3nc(C(F)(F)F)no3)ncc2OCC(F)(F)F)cc1C` [Example 78, 4-(3,4-dimethylphenyl)-5-(2,2,2-trifluoroethoxy)-N-((3-(trifluoromethyl)-1,2,4-oxadiazol-5-yl)methyl)picolinamide], the inhibition at 10 µM at human CB1 receptor (setting [1]) is 17%; on human CB2 receptor, 5%.

Turning to `O=C(NCc1coc(C2CC2)n1)c1ccc(OCC2CC2)c(-c2ccc(Cl)cc2)n1` [Example 56, 6-(4-chloro-phenyl)-5-cyclopropylmethoxy-pyridine-2-carboxylic acid (2-cyclopropyl-oxazol-4-ylmethyl)-amide], the values for the inhibition at 10 µM on human CB1 receptor (setting [1]) and on human CB2 receptor were 38% and 32%, respectively.

For the molecule `O=C(NCc1cc(C(F)(F)F)no1)c1ncc(OCC2CC2)c(-c2ccc(Cl)cc2)n1` [Example 62, 4-(4-chloro-phenyl)-5-cyclopropylmethoxy-pyrimidine-2-carboxylic acid (3-trifluoromethyl-isoxazol-5-ylmethyl)-amide], the inhibition at 10 µM is 44% on human CB1 receptor (setting [1]) and 24% at human CB2 receptor.

As to `O=C(NCc1nc(C(F)(F)F)no1)c1cnc(OCC(F)(F)F)c(-c2ccc3c(c2)CCC3)c1` [Example 85, 5-(2,3-dihydro-1H-inden-5-yl)-6-(2,2,2-trifluoroethoxy)-N-((3-(trifluoromethyl)-1,2,4-oxadiazol-5-yl)methyl)nicotinamide], the inhibition at 10 µM is 7% at human CB1 receptor (setting [1]) and 8% at human CB2 receptor.

For the molecule `COc1cc(CNC(=O)c2cc(-c3ccc(Cl)cc3)c(O[C@@H](C)C(F)(F)F)cn2)on1` [Example 37, (S)-4-(4-chlorophenyl)-N-((3-methoxyisoxazol-5-yl)methyl)-5-(1,1,1-trifluoropropan-2-yloxy)picolinamide], the inhibition at 10 µM amounted to 40% on human CB1 receptor (setting [1]) and 20% at human CB2 receptor.

Take `O=C(NCc1nc(C(F)(F)F)no1)c1cnc(OC[C@H]2CCOC2)c(-c2ccc(Cl)cc2)c1` (stereo in doubt) [Example 104]: the results for the inhibition at 10 µM on human CB1 receptor (setting [1]) and on human CB2 receptor were 39% and 9%, respectively.

As for `O=C(NCc1cc(C(F)(F)F)no1)c1cnc(OCC(F)(F)F)c(-c2ccc(Cl)cc2)c1` [Example 59, 5-(4-chloro-phenyl)-6-(2,2,2-trifluoro-ethoxy)-N-(3-trifluoromethyl-isoxazol-5-ylmethyl)-nicotinamide], the inhibition at 10 µM on human CB1 receptor was 49%; at human CB2 receptor, -2%.

Take `O=C(NCc1noc(C2CC2)n1)c1cc(-c2ccc(Cl)cc2)c(OCC(F)(F)F)nn1` [Example 41, 5-(4-chloro-phenyl)-6-(2,2,2-trifluoro-ethoxy)-pyridazine-3-carboxylic acid (5-cyclopropyl-[1,2,4]oxadiazol-3-ylmethyl)-amide]: the inhibition at 10 µM turned out to be 23% at human CB1 receptor (setting [1]) and 19% on human CB2 receptor.

As to `CC(C)(C)c1nc(CNC(=O)c2cc(-c3ccc(Cl)cc3)c(OCC(F)(F)F)nn2)cs1` [Example 65, 5-(4-chloro-phenyl)-6-(2,2,2-trifluoro-ethoxy)-pyridazine-3-carboxylic acid (2-tert-butyl-thiazol-4-ylmethyl)-amide], the inhibition at 10 µM at human CB1 receptor (setting [1]) is 18%.
